Publication PMC6320337, “Hepatocyte growth factor activator inhibitor-2 stabilizes Epcam and maintains epithelial organization in the mouse intestine” (Communications Biology, 2019)

Legend:
matriptase = molecular target: T1, matriptase (Homo sapiens, UniProt Q9Y5Y6); test: fluorescent kinetic enzyme inhibition assay; type: biochemical
T1 construct: gene ST14; recombinant catalytic domain (#3946-SEB, R&D Systems)
T1 sequence (Q9Y5Y6 615-855 limits assumed): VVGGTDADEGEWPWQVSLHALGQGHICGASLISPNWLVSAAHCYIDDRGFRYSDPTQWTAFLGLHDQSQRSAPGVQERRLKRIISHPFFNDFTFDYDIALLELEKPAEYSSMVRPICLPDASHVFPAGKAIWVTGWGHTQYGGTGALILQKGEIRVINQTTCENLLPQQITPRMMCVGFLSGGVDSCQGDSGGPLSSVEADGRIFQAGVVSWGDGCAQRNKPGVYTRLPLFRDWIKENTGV

hepsin = molecular target: T2, hepsin (Homo sapiens, UniProt P05981); test: fluorescent kinetic enzyme inhibition assay
T2 construct: gene HPN
T2 sequence (P05981 45-162 limits assumed): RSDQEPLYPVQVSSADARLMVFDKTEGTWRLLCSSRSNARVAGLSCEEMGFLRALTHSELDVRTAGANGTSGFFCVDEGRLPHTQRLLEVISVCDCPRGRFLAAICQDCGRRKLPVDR
T2 sequence (P05981 163-417 limits assumed): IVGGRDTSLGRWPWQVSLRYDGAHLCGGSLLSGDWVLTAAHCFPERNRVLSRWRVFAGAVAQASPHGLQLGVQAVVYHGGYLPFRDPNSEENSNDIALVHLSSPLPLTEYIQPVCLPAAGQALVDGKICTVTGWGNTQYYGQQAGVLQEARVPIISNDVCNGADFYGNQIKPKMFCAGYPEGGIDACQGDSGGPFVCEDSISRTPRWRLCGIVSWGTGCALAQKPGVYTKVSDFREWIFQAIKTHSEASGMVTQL

SMILES	Ki (matriptase)	Ki (hepsin)
N=C(N)NCCC[C@H](NC(=O)[C@H](CC(N)=O)NC(=O)OCC1c2ccccc2-c2ccccc21)C(=O)c1nc2ccccc2s1 [ZFH7185-3]	106 nM	1.7 nM
N=C(N)NCCC[C@H](NC(=O)CNC(=O)OCC1c2ccccc2-c2ccccc21)C(=O)c1nc2ccccc2s1 [ZFH7185-8]	0.13 nM	831 nM
